According to patent US20260137671A1, “PDK4 as a Cell-Aging Intervention Target and Its Use in Chemotherapy and Anticancer” (Shanghai Institute of Nutrition and Health, Chinese Academy …, priority 2022, published 2026):

Experiments:
[1] = test system: PC3 cells xenografted together with PSC27 cells; test: PC3/PSC27 xenograft, tumor end volume after chemotherapy and/or PDK4-IN; assay type: in vivo, SCID mice
Procedure: All experimental mouse experiments were carried out in strict accordance with the relevant regulations of the Institutional Animal Care and Use Committee (IACUC), Shanghai Institutes for Biological Sciences, Chinese Academy of Sciences. Immuno-deficient mice ICR SCID mice (body weight about 25 g) aged about 6 weeks were used for animal experiments related to the present disclosure. Stromal cells PSC27 and epithelial cells were mixed at a ratio of 1:4, and each graft contained 1.25×10^6 cells for tissue remodeling. The xenograft tumors were implanted into mice by subcutaneous transplantation, and the animals were euthanized 8 weeks after the end of the transplantation surgery. […] For pre-clinical chemotherapeutic studies, mice received subcutaneous implantation were given standard laboratory diets. […] The time points were on the first day of the third, fifth and seventh weeks, with a total of 3 cycles of treatment, and each cycle lasted for 2 weeks. After the course of treatment, mouse […] were collected for tumor measurement and histological analysis. […] The chemotherapy experiment ended at the end of the 8th week, and the mice were dissected immediately after sacrifice, and the xenograft tumors were collected and used for pathological system analysis. To closely mimic clinical conditions involving chemotherapeutic drugs, the inventors designed a preclinical regimen incorporating a genotoxic drug (MIT) and/or the PDK4 inhibitor (PDK4-IN) (FIG. 63).

[2] = test system: MDA-MB-231 breast cancer cells xenografted together with HBF1203 breast stromal cells; test: MDA-MB-231/HBF1203 xenograft, tumor end volume after chemotherapy and/or PDK4-IN; assay type: in vivo, SCID mice; settings: PDK4-IN 10.0 mg/kg combined with DOX 1.0 mg/kg i.p.
Procedure: All experimental mouse experiments were carried out in strict accordance with the relevant regulations of the Institutional Animal Care and Use Committee (IACUC), Shanghai Institutes for Biological Sciences, Chinese Academy of Sciences. Immuno-deficient mice ICR SCID mice (body weight about 25 g) aged about 6 weeks were used for animal experiments related to the present disclosure. Stromal cells PSC27 and epithelial cells were mixed at a ratio of 1:4, and each graft contained 1.25×10^6 cells for tissue remodeling. The xenograft tumors were implanted into mice by subcutaneous transplantation, and the animals were euthanized 8 weeks after the end of the transplantation surgery. Tumor volume was calculated according to the following formula: V=(π/6)×(([…])/2)^3 (V, volume; 1, length; w, width).
For pre-clinical chemotherapeutic studies, mice received subcutaneous implantation were given standard laboratory diets. […] The time points were on the first day of the third, fifth and seventh weeks, with a total of 3 cycles of treatment, and each cycle lasted for 2 weeks. After the course of treatment, mouse […] were collected for tumor measurement and histological analysis. […] In order to cause systemic expression of SASP factors induced by chemotherapy, MIT was administered to mice through intravenous infusion according to the above steps and sequence, but the dose was reduced to 0.1 mg/kg body weight/each time (the cumulative dose of MIT received in the whole course of treatment was 0.3 mg/kg body weight) to reduce drug-related toxicity. The chemotherapy experiment ended at the end of the 8th week, and the mice were dissected immediately after sacrifice, and the xenograft tumors were collected and used for pathological system analysis.
To assess the in vivo effects of chemotherapeutic drugs and/or PDK4-IN treatment in different tumor types, the inventors subsequently generated xenografts composed of breast cancer cell line MDA-MB-231 and breast stromal cell line HBF1203 to replicate the preclinical intervention observed in prostate cancer xenografts.

[3] = test system: cancer cells in tumors (PC3/PSC27 xenografts); test: DNA damage and apoptosis in tumors by IHC (γ-H2AX, cleaved caspase 3); assay type: in vivo, SCID mice; settings: for DNA damage and apoptosis in cancer cells: tumors dissected 7 days after initiation of treatment
Source text: FIG. 69. Statistical evaluating values of DNA-damaged cells and apoptotic cells in analyzed tumor specimens, represented as a percentage of cells positively stained by IHC with antibodies against γ-H2AX or caspase 3 (cleaved).
FIG. 70. Representative IHC images of caspase 3 (cleaved) in tumors at the end of therapeutic regimens. Biopsies of placebo-treated animals served as negative controls for drug-treated mice. Scale bar, 100 μm.
Considering the primary in vivo expressive results with MIT and/or PDK4-IN treatment, the inventors next asked how pharmacologically targeting PDK4 could enhance the therapeutic response of tumors. To disclose the possible mechanism(s), the inventors chose to dissect tumors from animals 7 days after initiation of treatment, a timepoint right before the development of resistant colonies.

[4] = test system: mice aged 24 to 27 months; test: Lifespan appraisal of late-life mice; assay type: in vivo, C57BL/6 mice; settings: PDK4-IN every two weeks, P<0.001 vs Vehicle
Procedure: FIG. 91. Schematic design for lifespan appraisal of mice. Mice aged 24 to 27 months were administered either Vehicle or PDK4-IN every two weeks, with continuous monitoring of their survival and recording of maximum lifespan.
C57BL/6 mice aged 24 to 27 months were administered either Vehicle or PDK4-IN every two weeks intraperitoneally. The median survival of animals in each group was calculated and indicated. ***, P<0.001.
The earliest deaths occurred approximately 2 months after the last physical function test. C57BL/6 mice aged 19 to 21 months were housed at 3-5 animals per cage. Same as the transplanted mice, the mice were sorted by body weight and randomly assigned to each group, and treated in either control (vehicle) or drug (PDK4) group by persons blinded to the design of the preclinical trial. From the age of 24-27 months, the mice were treated with vehicle or PDK4-IN every 2 weeks, […] for 3 consecutive days at each time. During the course of the study, some mice were removed from their original cages in order to minimize the animal housing stress caused by long-term housing in a single cage. RotaRod and hanging tests were performed monthly because these tests were sensitive and noninvasive. […] During the experiment, no mice were excluded due to fighting, accidental death or dermatitis. For biostatistics, a Cox proportional hazard model was used for survival analysis. […]

[5] = PDK4-IN 10.0 mg/kg combined with MIT 0.2 mg/kg i.p., end of 8-week regimen

Structure (SMILES): O=C1c2ccccc2C(=O)c2c1cccc2-c1cnn(C2CCNCC2)c1 [PDK4-IN]
- further decline of tumor volume over MIT alone [1, 5]: 35.5%
- total tumor shrinkage compared to the control group [1, 5]: 72.6%
- effect on tumor volume as single agent ([1]; PDK4-IN alone, 10.0 mg/kg i.p.): did not provide noticeable benefits
- further decline of tumor volume on the basis of doxorubicin (DOX) [2]: 39.8%
- tumor size reduction in total compared to the control group [2]: 69.5%
- caspase 3 cleavage (IHC) ([3]; PDK4-IN added to MIT): further enhanced
- DNA damage and apoptosis in cancer cells ([3]; PDK4-IN upon combination with MIT): prominent efficacy in enhancing these therapeutic indices
- DNA damage and apoptosis in cancer cells ([3]; single agent): neither caused typical DDR nor induced cell apoptosis
- lifespan during the intervention period [4]: significantly extended the lifespan
